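96-well plates; 48 h exposure; 5 concentrations. Endpoints by linear interpolation between flanking doses. Not reached: highest tested concentration assigned. GI50 = concentration required for 50% inhibition of growth.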 Activity calls are given as the source filed them. Rule as the data show it: active = GI50 up to about 1.1 µM and inactive = higher.
What was measured:
Test in all cases: inhibition of tumour cell growth, NCI panel, 48 h
RXF 631 = tested on: RXF 631
DMS-114 = tested on: DMS-114
SK-OV-3 = tested on: SK-OV-3
HOP-62 = tested on: HOP-62
DLD-1 = tested on: DLD-1
OVCAR-4 = tested on: OVCAR-4
SNB-78 = tested on: SNB-78
CCRF-CEM = tested on: CCRF-CEM
LXFL 529 = tested on: LXFL 529
HL-60 = tested on: HL-60
RXF 393 = tested on: RXF 393
A549 = tested on: A549
TK-10 = tested on: TK-10
SN12C = tested on: SN12C
NCI-H522 = tested on: NCI-H522
A498 = tested on: A498
HT-29 = tested on: HT-29
NCI-H23 = tested on: NCI-H23
HOP-18 = tested on: HOP-18
SK-MEL-5 = tested on: SK-MEL-5
HCT-15 = tested on: HCT-15
K562 = tested on: K562
NCI-H460 = tested on: NCI-H460
SW-620 = tested on: SW-620
IGROV-1 = tested on: IGROV-1
Malme-3M = tested on: Malme-3M
UACC-62 = tested on: UACC-62
SF-268 = tested on: SF-268
786-0 = tested on: 786-0
MOLT-4 = tested on: MOLT-4
UO-31 = tested on: UO-31
SF-539 = tested on: SF-539
SK-MEL-28 = tested on: SK-MEL-28
SR = tested on: SR
UACC-257 = tested on: UACC-257
SF-295 = tested on: SF-295
OVCAR-8 = tested on: OVCAR-8
KM-20L2 = tested on: KM-20L2
HOP-92 = tested on: HOP-92
SNB-19 = tested on: SNB-19
HCC 2998 = tested on: HCC 2998
M19-MEL = tested on: M19-MEL
DMS-273 = tested on: DMS-273
EKVX = tested on: EKVX
LOX IMVI = tested on: LOX IMVI
SNB-75 = tested on: SNB-75
HCT-116 = tested on: HCT-116
ACHN = tested on: ACHN
CAKI-1 = tested on: CAKI-1
U-251 = tested on: U-251
RPMI-8226 = tested on: RPMI-8226
M14 = tested on: M14
NCI-H226 = tested on: NCI-H226
OVCAR-3 = tested on: OVCAR-3
OVCAR-5 = tested on: OVCAR-5
COLO 205 = tested on: COLO 205
XF498 = tested on: XF498
KM12 = tested on: KM12

CCCCCCCCCCNC(=S)OC
GI50 (RXF 631): 62.1 µM (inactive)
GI50 (DMS-114): 15.6 µM (inactive)
GI50 (SK-OV-3): > 100 µM (inactive)
GI50 (HOP-62): > 100 µM (inactive)
GI50 (DLD-1): 36.8 µM (inactive)
GI50 (OVCAR-4): 47.2 µM (inactive)
GI50 (SNB-78): 53.3 µM (inactive)
GI50 (CCRF-CEM): 24.3 µM (inactive)
GI50 (LXFL 529): 33.7 µM (inactive)
GI50 (HL-60): 16.7 µM (inactive)
GI50 (RXF 393): 33.7 µM (inactive)
GI50 (A549): 34.3 µM (inactive)
GI50 (TK-10): 98.2 µM (inactive)
GI50 (SN12C): 26.7 µM (inactive)
GI50 (NCI-H522): 20.2 µM (inactive)
GI50 (A498): 46.2 µM (inactive)
GI50 (HT-29): 34.3 µM (inactive)
GI50 (NCI-H23): > 100 µM (inactive)
GI50 (HOP-18): > 100 µM (inactive)
GI50 (SK-MEL-5): 23 µM (inactive)
GI50 (HCT-15): 24.4 µM
GI50 (K562): 29.2 µM (inactive)
GI50 (NCI-H460): > 100 µM (inactive)
GI50 (SW-620): 42.8 µM (inactive)
GI50 (IGROV-1): 25.7 µM (inactive)
GI50 (Malme-3M): 69.8 µM (inactive)
GI50 (UACC-62): 25 µM (inactive)
GI50 (SF-268): 63 µM (inactive)
GI50 (786-0): 49.3 µM (inactive)
GI50 (MOLT-4): 5.83 µM (inactive)
GI50 (UO-31): 15.8 µM (inactive)
GI50 (SF-539): 64.7 µM (inactive)
GI50 (SK-MEL-28): 51.2 µM (inactive)
GI50 (SR): 13.7 µM (inactive)
GI50 (UACC-257): 23.8 µM (inactive)
GI50 (SF-295): 55.5 µM (inactive)
GI50 (OVCAR-8): 48.2 µM (inactive)
GI50 (KM-20L2): 32.7 µM (inactive)
GI50 (HOP-92): 13.4 µM (inactive)
GI50 (SNB-19): 59.2 µM (inactive)
GI50 (HCC 2998): 43.6 µM (inactive)
GI50 (M19-MEL): 29 µM (inactive)
GI50 (DMS-273): 51.5 µM (inactive)
GI50 (EKVX): 80 µM (inactive)
GI50 (LOX IMVI): 15.8 µM (inactive)
GI50 (SNB-75): 27.4 µM (inactive)
GI50 (HCT-116): 37.9 µM (inactive)
GI50 (ACHN): 33.6 µM (inactive)
GI50 (CAKI-1): 28.5 µM (inactive)
GI50 (U-251): 33.1 µM (inactive)
GI50 (RPMI-8226): 13.2 µM (inactive)
GI50 (M14): 63.1 µM (inactive)

CCN(CC)CCCNC(=O)C1COc2cc(-c3cc(=O)c4ccccc4o3)ccc2O1 (stereo unspecified)
GI50 (RXF 631): 34.4 µM (inactive)
GI50 (DMS-114): 25.4 µM (inactive)
GI50 (SK-OV-3): > 100 µM (inactive)
GI50 (HOP-62): > 100 µM (inactive)
GI50 (DLD-1): 65.3 µM (inactive)
GI50 (OVCAR-4): 72.6 µM (inactive)
GI50 (SNB-78): > 100 µM (inactive)
GI50 (CCRF-CEM): 43.8 µM (inactive)
GI50 (LXFL 529): 53 µM (inactive)
GI50 (HL-60): 36.9 µM (inactive)
GI50 (RXF 393): 39.8 µM (inactive)
GI50 (A549): 44.1 µM (inactive)
GI50 (TK-10): 42.4 µM (inactive)
GI50 (SN12C): 45.6 µM (inactive)
GI50 (NCI-H522): 33.3 µM (inactive)
GI50 (A498): 48.2 µM (inactive)
GI50 (HT-29): 41.7 µM (inactive)
GI50 (NCI-H226): 76 µM (inactive)
GI50 (NCI-H23): > 100 µM (inactive)
GI50 (HOP-18): > 100 µM (inactive)
GI50 (SK-MEL-5): 19.7 µM (inactive)
GI50 (HCT-15): 53 µM
GI50 (K562): 36.6 µM (inactive)
GI50 (NCI-H460): > 100 µM (inactive)
GI50 (SW-620): 48.5 µM (inactive)
GI50 (OVCAR-3): 93.5 µM (inactive)
GI50 (IGROV-1): 68.1 µM (inactive)
GI50 (OVCAR-5): 81.7 µM (inactive)
GI50 (Malme-3M): 20.4 µM (inactive)
GI50 (UACC-62): 45.9 µM (inactive)
GI50 (SF-268): 42.9 µM (inactive)
GI50 (786-0): 66.8 µM (inactive)
GI50 (MOLT-4): 33.4 µM (inactive)
GI50 (UO-31): 27.4 µM (inactive)
GI50 (SF-539): 19.5 µM (inactive)
GI50 (SK-MEL-28): 20.6 µM (inactive)
GI50 (SR): 19.9 µM (inactive)
GI50 (UACC-257): 21.6 µM (inactive)
GI50 (SF-295): 96.8 µM (inactive)
GI50 (OVCAR-8): 53.7 µM (inactive)
GI50 (KM-20L2): 34.8 µM (inactive)
GI50 (HOP-92): > 100 µM (inactive)
GI50 (SNB-19): > 100 µM (inactive)
GI50 (HCC 2998): 42.2 µM (inactive)
GI50 (M19-MEL): 20.9 µM (inactive)
GI50 (DMS-273): 65.5 µM (inactive)
GI50 (EKVX): > 100 µM (inactive)
GI50 (LOX IMVI): 23.6 µM (inactive)
GI50 (SNB-75): 45.9 µM (inactive)
GI50 (HCT-116): 37.4 µM (inactive)
GI50 (ACHN): 51.4 µM (inactive)
GI50 (COLO 205): 25.1 µM (inactive)
GI50 (CAKI-1): > 100 µM (inactive)
GI50 (U-251): 37.8 µM (inactive)
GI50 (RPMI-8226): > 100 µM (inactive)
GI50 (M14): 22.1 µM (inactive)

CN(O)C(=O)c1ccccc1
GI50 (RXF 631): > 100 µM (inactive)
GI50 (DMS-114): > 100 µM (inactive)
GI50 (SK-OV-3): > 100 µM (inactive)
GI50 (HOP-62): > 100 µM (inactive)
GI50 (DLD-1): > 100 µM (inactive)
GI50 (OVCAR-4): > 100 µM (inactive)
GI50 (XF498): > 100 µM (inactive)
GI50 (CCRF-CEM): > 100 µM (inactive)
GI50 (LXFL 529): > 100 µM (inactive)
GI50 (HL-60): > 100 µM (inactive)
GI50 (RXF 393): > 100 µM (inactive)
GI50 (A549): > 100 µM (inactive)
GI50 (TK-10): > 100 µM (inactive)
GI50 (SN12C): > 100 µM (inactive)
GI50 (NCI-H522): > 100 µM (inactive)
GI50 (HT-29): > 100 µM (inactive)
GI50 (NCI-H226): > 100 µM (inactive)
GI50 (NCI-H23): > 100 µM (inactive)
GI50 (SK-MEL-5): > 100 µM (inactive)
GI50 (K562): > 100 µM (inactive)
GI50 (NCI-H460): > 100 µM (inactive)
GI50 (SW-620): > 100 µM (inactive)
GI50 (OVCAR-3): > 100 µM (inactive)
GI50 (IGROV-1): > 100 µM (inactive)
GI50 (OVCAR-5): > 100 µM (inactive)
GI50 (Malme-3M): > 100 µM (inactive)
GI50 (UACC-62): > 100 µM (inactive)
GI50 (SF-268): > 100 µM (inactive)
GI50 (786-0): > 100 µM (inactive)
GI50 (MOLT-4): > 100 µM (inactive)
GI50 (KM12): > 100 µM (inactive)
GI50 (UO-31): > 100 µM (inactive)
GI50 (SF-539): > 100 µM (inactive)
GI50 (SK-MEL-28): > 100 µM (inactive)
GI50 (SR): > 100 µM (inactive)
GI50 (UACC-257): > 100 µM (inactive)
GI50 (SF-295): > 100 µM (inactive)
GI50 (OVCAR-8): > 100 µM (inactive)
GI50 (KM-20L2): > 100 µM (inactive)
GI50 (HOP-92): > 100 µM (inactive)
GI50 (SNB-19): > 100 µM (inactive)
GI50 (HCC 2998): > 100 µM (inactive)
GI50 (M19-MEL): > 100 µM (inactive)
GI50 (DMS-273): > 100 µM (inactive)
GI50 (LOX IMVI): > 100 µM (inactive)
GI50 (SNB-75): > 100 µM (inactive)
GI50 (HCT-116): > 100 µM (inactive)
GI50 (ACHN): > 100 µM (inactive)
GI50 (COLO 205): > 100 µM (inactive)
GI50 (CAKI-1): > 100 µM (inactive)
GI50 (U-251): > 100 µM (inactive)
GI50 (RPMI-8226): > 100 µM (inactive)
GI50 (M14): > 100 µM (inactive)

From ChEMBL document CHEMBL1201862, “PubChem BioAssay data set” (2004)
